Experimental data taken from PubChem BioAssay AID179 (DTP/NCI, 2004).
“And” between values parts separate entries of the source, which are not always exact repeats. Identical values can stand only once. The source made the active and inactive calls.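 The calls were made as follows: active = compounds giving half or more protection of infected cells from virus-caused growth loss, again on retest; inactive = the rest.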 Where a SMILES comes first, the peptide text is derived from it. The star is where a group is joined. OSu = O=C1CCC(=O)N1O*; Bn = c1ccc(C*)cc1

System: CEM cells HIV-1 protection, formazan growth assay
Experiment: NCI AIDS Antiviral Assay
Settings: for IC50: measured here: growth of uninfected CEM cells
Method in brief: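 Human CEM cells, uninfected and HIV-1-infected, exposed to five drug concentrations; growth measured by soluble formazan assay and scored as percent protection from infection, with protecting compounds retested.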

| Structure (SMILES) | EC50 [µM] | IC50 | outcome |
| --- | --- | --- | --- |
| O=C(OC1CCCC1)C1(O)CCCCC1 | > 200 | > 200 µM |  |
| COc1ccc(-c2n[nH]c3c2CCCc2ccccc2-3)cc1 | > 43.7 | 18.2 µM |  |
| Cc1cc(N(CCC#N)CCC#N)ccc1N=Nc1cc(Cl)ccc1Cl | > 3.72 | 2 µM |  |
| N#CCCN(CCC#N)c1ccc(/C=C2/N=C(COc3ccccc3)N(c3ccc(Cl)cc3)C2=O)cc1 | > 37.2 | > 37.2 µM |  |
| COc1cc(-c2cc(=O)c3c(O)c(OC)c(OC)c(OC)c3o2)cc(OC)c1OC | > 70.8 | > 70.8 µM |  |
| CCc1nc(N)nc(C(=O)NCCNC(=O)c2nc(N)nc(CC)c2C)c1C | > 67.6 | > 67.6 µM |  |
| NC(Cc1ccc(OCc2ccccc2)cc1)C(=O)NC(Cc1ccccc1)C(=O)ON1C(=O)CCC1=O (stereo not drawn) (H-Tyr(Bn)-Phe-OSu; configuration not given here) |  |  | inactive |
| CC(C)=CC(=O)OC1C2C(C)=CC(O)C(O)C2(C)C2C3(O)OCC24C(CC(=O)OC14)C(C)C3O (stereo not drawn) | > 2 | 0.0912 µM |  |
| CCCCc1ccc(OC2OC(CO)C(O)C(O)C2O)cc1 (stereo not drawn) | > 288 |  |  |
| O=C(OCc1ccccc1)C1CCN1C(c1ccccc1)c1ccccc1 (stereo not drawn) | > 100 | > 100 µM |  |
| CC1(c2ccc(Cl)cc2)OCC(CCl)O1 (stereo not drawn) | > 200 | > 200 µM |  |
| CN(C(=O)C1=CCCCCC1)c1ccccc1Br | > 813 | 389 µM |  |
| CCC1(C)N=C(C(N)=O)c2ncn(N=C(C)C)c2N1 (stereo not drawn) | > 200 | > 200 µM |  |
| Cc1ccc(C)n1-n1c(Cc2ccccc2)n[nH]c1=O | > 200 | 83.2 µM |  |
| CC1CC(Nc2ccc(Br)cc2)N(C(=O)c2ccc(Br)cc2)O1 (stereo not drawn) | > 200 | 17 µM |  |
| [O-][n+]1nc2ccccc2c2ccccc21 | > 347 | 141 µM |  |
| Cc1ccc2[nH]c(N(C)C)nc2c2nc(Cl)nc1-2 | > 200 | 117 µM |  |
| CCn1c(=O)c(C(=O)O)c(Cl)c2cc3c(cc21)OCO3 |  |  | inactive |
| O=[N+]([O-])C1C2C=CC(C2)[C@H]1c1ccc(Cl)cc1Cl (stereo partly drawn) |  |  | inactive |
| CS(=O)(=O)N1CC(CI)c2ccc(O)cc21 (stereo not drawn) | > 200 | 2.4 µM |  |
| O=[N+]([O-])c1ccccc1Sc1ccc(Cl)cc1 | > 135 | 38.9 µM |  |
| CCn1c(C)nc2c(N)cccc2c1=O | > 1230 | > 1230 µM |  |
| CC1(c2ccccc2)CC(c2ccccc2)=NO1 (stereo not drawn) | > 57.5 | > 57.5 µM |  |

| Structure (SMILES) | EC50 [µM] | IC50 | outcome |
| --- | --- | --- | --- |
| O=C(O)COc1c2occc2cc2ccc(=O)oc12 | > 347 | > 347 µM |  |
| COc1ccc2c(-c3ccc(OCCN(C)C)cc3)c(Oc3ccccc3)c(=O)oc2c1 | > 200 | 7.08 µM |  |
| CC(=O)Nc1cc2nc3n(c2cc1C)CCC3OC(C)=O (stereo not drawn) | > 200 | > 200 µM |  |
| Cc1ccc(S(=O)(=O)NCCSSCCNS(=O)(=O)c2ccc(C)cc2)cc1 | > 200 | 19.5 µM and 26.9 µM |  |
| O=c1[nH]nc(NCc2ccccc2)c2nnn(Cc3ccccc3)c12 | > 200 | > 200 µM |  |
| S=C1NCCNC(=S)SS1 | > 34.7 | > 34.7 µM |  |
| CCCOc1csc([C@H]2CCC3[C@@H]4CC=C5C[C@@H](OC(=O)CCC(=O)O)CC[C@]5(C)C4CC[C@@]32C)n1 (stereo partly drawn) | > 47.9 | 18.2 µM |  |
| CC(C)(C)[Si](C)(C)OCC1OC(n2cnc3c(=O)[nH]c(NCc4cccc5ccccc45)nc32)C(O[Si](C)(C)C(C)(C)C)C1O[Si](C)(C)C(C)(C)C (stereo not drawn) | > 200 | > 200 µM |  |
| CN1CCC23c4c5ccc(O)c4OC2C(=NN=C2CCC4(O)C6Cc7ccc(O)c8c7C4(CCN6C)C2O8)CCC3(O)C1C5 (stereo not drawn) | > 200 | 105 µM |  |
| O=C1c2ccccc2C(=C2c3ccccc3C(=O)c3ccccc32)c2ccccc21 |  |  | inactive |
| CC1N=C(c2ccccc2)c2cc(Cl)ccc2NC1=O (stereo not drawn) | > 18.2 | > 18.2 µM |  |
| COc1ccc(-c2n[nH]c3nc4ccccc4n3c2=O)cc1 | > 200 | > 200 µM |  |
| CCOC(=O)/C(O)=C/c1cc(OC)cc(=O)o1 |  |  | inactive |
| CC(=O)O[C@H]1CC[C@@]2(C)C(=CC[C@@H]3C2CC[C@@]2(C)C3CC[C@@H]2c2ncc(-c3ccccc3)s2)C1 (stereo partly drawn) | > 52.5 | > 52.5 µM |  |
| O=[As](O)(O)c1ccc(OCCO)cc1 | > 200 | > 200 µM |  |
| O=C1CCCCCCCCCC(=O)Nc2ccccc2-c2ccccc2N1 |  |  | inactive |
| COc1cc2cc(C(=O)N3CC(CCl)c4c3cc(N)c3ccccc43)[nH]c2c(OC)c1OC (stereo not drawn) | > 0.2 | 0.000832 µM |  |
| c1ncc(C23C4C5C6C4C2C6C53)[nH]1 (stereo not drawn) | > 200 | 155 µM |  |
| O=C1CC2(CCN(Cc3ccccc3)CC2)C(=O)N1N1CCCCC1 | > 200 | > 200 µM |  |
| O=C(/C=C/c1ccccc1Cl)c1ccccc1Cl | > 7.24 | > 7.24 µM |  |
| CC1(C)CNC(=O)C2=C(O1)C(=O)OC2 | > 1260 | > 1260 µM |  |
| COC(=O)C(C#N)=C1c2ccccc2Oc2ccccc21 | > 129 | 66.1 µM |  |
